Assays:
[1] = Spectroscopic characterization of BODIPY dyes (absorption, emission, FWHM, quantum yield); assay type: physicochemical; conditions: for Abs Max / Em Max: Table 1, free dye, solvent not stated; for FWHM: Table 1, full width half maximum of emission, free dye
Protocol: (§1) A variety of BODIPY dyes were prepared and conjugated to polymeric dyes to prepare polymeric tandem dyes. […] The spectroscopic characteristics of particular BODIPY dyes and polymeric tandem dyes including the same were assessed. […] Further details of exemplary BODPY dyes and tandem dyes including the same are provided below in Tables 1 and 2.

[2] = Absorption and emission spectra of free narrow emission dyes in ethanol; assay type: physicochemical
Protocol: as §1

Compound | Abs Max [1] [nm] | Em Max [1] [nm] | FWHM [1] [nm] | also measured
Cc1cc(C)n2c1C=C1C=CC(CCC(=O)O)=[N+]1[B-]2(F)F [BODIPY FL] | 505 | 513 | 21 | –
O=C(O)CCc1ccc2n1[B-](F)(F)[N+]1=C(c3ccccc3)C=CC1=C2 [BODIPY R6G] | 533 | 550 | 26 | –
CCN1\C(=C/C=C/C=C/C2=[N+](CCCCCC(=O)O)c3ccc4c(S(=O)(=O)O)cc(S(=O)(=O)O)cc4c3C2(C)C)C(C)(C)c2c1ccc1c(S(=O)(=O)[O-])cc(S(=O)(=O)O)cc21 [Cy5.5] | – | – | – | Dye Abs. max ([2]; dye in ethanol): 673 nm; Dye Em. FWHM ([2]; dye in ethanol): 42 nm; Dye Em. Max ([2]; dye in ethanol): 691 nm; Dye Stokes Shift ([2]; dye in ethanol): 18 nm
CCN1/C(=C/C=C/C=C/C2=[N+](CCCCCC(=O)O)c3ccc(S(=O)(=O)O)cc3C2(C)C)C(C)(C)c2cc(S(=O)(=O)[O-])ccc21 [Cy5] | – | – | – | Dye Abs. max ([2]; dye in ethanol): 649 nm; Dye Em. FWHM ([2]; dye in ethanol): 35 nm; Dye Em. Max ([2]; dye in ethanol): 666 nm; Dye Stokes Shift ([2]; dye in ethanol): 17 nm
CCN1C(=CC=CC=CC=CC2=[N+](CCCCCC(=O)O)c3ccc(S(=O)(=O)O)cc3C2(C)C)C(C)(C)c2cc(S(=O)(=O)[O-])ccc21 [Cy7] | – | – | – | Dye Abs. max ([2]; dye in ethanol): 752 nm; Dye Em. FWHM ([2]; dye in ethanol): 52 nm; Dye Em. Max ([2]; dye in ethanol): 776 nm; Dye Stokes Shift ([2]; dye in ethanol): 24 nm
BODIPY 581/591 | 582 | 590 | 29 | –
BODIPY 630/650 | 630 | 641 | 30 | –
BODIPY 650/665 | 650 | 665 | 37 | –
BODIPY TMR | 550 | 570 | 30 | –
BODIPY TR | 590 | 620 | 35 | –
CF594 | – | – | – | Dye Abs. max ([2]; measured in DMAC): 592 nm; Dye Em. FWHM ([2]; measured in DMAC): 37 nm; Dye Em. Max ([2]; measured in DMAC): 615 nm; Dye Stokes Shift ([2]; measured in DMAC): 23 nm

From patent publication US20200048469A1, “POLYMERIC TANDEM DYES HAVING PENDANT NARROW EMISSION ACCEPTOR” (Becton, Dickinson and Company, priority 2018, published 2020)
